Measurements from patent US20030069194A1, “Inhibition of viral replication by targeting RNA-DNA complexes” (priority 2001, published 2003).
Counter-ions that a name gives are not always drawn.

Columns and labels:
[1] = tested on: 18C-18D duplex (RNase H substrate of HIV-1 RT); assay: RT-induced RNase H cleavage of the 18C-18D duplex (gel assay); format: biochemical; settings: for hierarchy of inhibition of RT-induced cleavage: 18C-18D duplex, aminoglycosides 2.0 mM, FIG. 2b, 2c
Excerpt: The second model oligonucleotide was a 18mer chimeric duplex (18C-18D). 18C-18D mimics a RNase H substrate during plus-strand strong-stop synthesis (FIG. 2a), which occurs following minus-strand DNA synthesis. Fedoroff, O. Y., et. al., B. R. Structural variation among retroviral primer-DNA junctions: Solution structure of the HIV-1 (−)-strand Okazaki fragment r(gcca)d(CTGC)-d(GCAGTGGC), Biochemistry 35,11070-11080 (1996). For the 18C-18D duplex, RT cleaves the RNA portion of the chimeric strand (18C) opposite the DNA strand (18D) at only a single site (FIGS. 2a, b), in marked contrast to the three cleavage sites observed in the 18C-18Rduplex. This unique cleavage site lies between base positions +1 and +2 (counting from the RNA-DNA junction in the 5′ direction on the cleaved chimeric strand). Furfine, E. S. & Reardon, J. E., Human immunodeficiency virus reverse transcriptase ribonuclease H: Specificity of tRNA(Lys3)-primer excision, Biochemistry 30, 7041-7046 (1991); Smith, J. S. & Roth, M. J. Specificity of human immunodeficiency virus-1 reverse transcriptase-associated ribonuclease H in removal of the minus-strand primer tRNA(Lys3), J. Biol. Chem. 267, 15071-15079 (1992). […] As noted above for the 18C-18R duplex, this hierarchy of cleavage inhibition correlates with the relative binding affinities of the three ligands for the 18C-18D duplex.
Recombinant HIV-1 RT p66 was isolated from Escherichia coli JM 109. Pandey, V. N. et al, Role of methionine 184 of human immunodeficiency virus type-1 reverse transcriptase in the polymerase function and fidelity of DNA synthesis, Biochemistry 35, 2168-2179 (1996). The 18C and 18R oligonucleotides were purchased from Dharmacon Research, Inc. (Lafayette, Colo.). The 18D oligonucleotide was obtained from Integrated DNA Technologies, Inc. (Coralville, Iowa). Neomycin trisulfate trihydrate, the free base of tobramycin, paromomycin sulfate, and kanamycin B sulfate were obtained from Fluka, while kanamycin A monosulfate and ribostamycin sulfate dihydrate were obtained from Sigma.
The RNase H activity of RT was assayed in a 10 μl reaction mixture containing 110 mM PIPES (pH 6.0) and 5 mM MgCl2. Ten pmol of either 18C or 18R were ^32P-labeled at the 5′ end using T4 polynucleotide kinase. For the cleavage experiments, different aminoglycosides were mixed with 0.5 μM of target duplex. A small amount of RT, 0.1 μg, was then added to initiate the cleavage reaction. After incubation at 37° C. for 30 min, the reaction was stopped by addition of 3 M urea containing a mixture of bromophenol blue and xylene cyanol. Denaturation of the 18C-18R duplex required the addition of 5 M urea as well as heating at 95° C. for 5 min prior to gel loading. The cleavage products were resolved in a 10% polyacrylamide gel containing 8 M urea. The gels were subsequently analyzed using a phosphoimager (Molecular Dynamics, Inc.).
To determine the nature of the aminoglycoside-induced inhibition of RT-catalyzed RNase H cleavage, the impact of RT concentration on neomycin-induced inhibition was examined. […] In the presence of 1 mM neomycin, increasing the concentrations of RT overcomes the RNase H inhibitory effect of the drug.

18C-18D duplex = assay: Isothermal titration calorimetry (ITC), 18C-18D duplex; format: binding, HIV-1; settings: for ΔHb (binding enthalpy): 18C-18D duplex, ITC at 25° C.
Description: Isothermal calorimetric measurements were performed at 25° C. on a MicroCal VP-ITC (MicroCal, Inc., Northampton, Mass.). In a typical experiment, 5 μl aliquots of 500 μM aminoglycoside were injected from a 250 μl rotating (430 RPM) syringe into an isothermal sample chamber containing 1.31 mL of either a 18C-18R solution that was 10 μM in duplex or a 18C-18D solution that was 15 μM in duplex. Each experiment of this type was accompanied by the corresponding control experiment in which 5 μL aliquots of 500 μM drug were injected into a solution of buffer alone. The duration of each injection was 5 seconds and the delay between injections was 240 seconds. The initial delay prior to the first injection was 60 seconds. Each injection generated a heat burst curve (μcal/sec vs. sec). The area under each curve was determined by integration [using the Origin version 5.0 software (MicroCal, Inc., Northampton, Mass.)] to obtain a measure of the heat associated with that injection. The heat associated with each drug-buffer injection was subtracted from the corresponding heat associated with each drug-duplex injection to yield the heat of drug binding for that injection. The calorimeter was calibrated both electronically and chemically. Pilch, D. S., Kirolos, M. A., Liu, X., Plum, G. E. & Breslauer, K. J. Berenil [1,3-bis-(4′-amidinophenyl)triazene] binding to DNA duplexes and to a RNA duplex: Evidence for both intercalative and minor groove binding properties, Biochemistry 34, 9962-9976 (1995). All duplex solutions were preheated for 5 minutes at 85° C. and then cooled to room temperature prior to their use in the ITC experiments. The buffer solutions for the ITC experiments contained 10 mM PIPES (pH 6.0) and 5 mM MgCl2.
Table 1 summarizes the apparent association constants at 25° C. that were calculated using equations (1)-(3) for neomycin and paromomycin binding to the 18C-18R and 18C-18D duplexes. The drug binding enthalpies (ΔHb) required for extrapolation of the binding constants at Tm to common reference temperature of 25° C. using equation (3) were determined using isothermal titration calorinietry (ITC). […] Each of the heat burst curves in FIG. 4 corresponds to a single drug injection, with the seven injections resulting in a final drug to duplex ratio (rdup) of either 0.83 (when 18C-18D served as the target duplex) or 1.25 (when 18C-18R served as the target duplex). The areas under these heat burst curves were determined by integration to yield the associated injection heats. For each titration, the seven injection heats were similar in magnitude, an observation consistent with all of the injected drug being bound by the host duplex. These injection heats were corrected by subtraction of the corresponding dilution heats derived from the injection of identical amounts of drug into buffer alone. The resulting corrected injection heats then were divided by the total concentration of injected drug and averaged to yield the ΔHb values listed in Table 1.

| Compound | hierarchy of inhibition of RT-induced cleavage [1] | ΔHb (binding enthalpy) (18C-18D duplex) [kcal/mol] | ΔHb (binding enthalpy) (18C-18D duplex; listed as Paromomycin) [kcal/mol] | nature of inhibition of RNase H activity of RT ([1]; 1 mM neomycin, increasing RT 0.1-2.7 μg, FIG. 2d) | neomycin required for 50% inhibition of RT-induced cleavage, 18C-18D relative to 18C-18R ([1]; comparison of FIGS. 1c and 2c) | ΔHb (binding enthalpy) (18C-18D duplex; listed as Neomycin, trisulfate trihydrate) [kcal/mol] | ΔHb (binding enthalpy) (18C-18D duplex; trisulfate trihydrate) [kcal/mol] | binding stoichiometry (18C-18D duplex; ITC, 18C-18D) |
| --- | --- | --- | --- | --- | --- | --- | --- | --- |
| NC[C@@H]1O[C@H](O[C@H]2[C@@H](O)[C@H](O[C@@H]3[C@@H](O)[C@H](N)C[C@H](N)[C@H]3O[C@H]3O[C@H](CO)[C@@H](O)[C@H](O)[C@H]3N)O[C@@H]2CO)[C@H](N)[C@@H](O)[C@@H]1O [paromomycin, paromomycin sulfate] | neomycin>paromomycin>ribostamycin | -3.6 | -3.6 ± 0.1 | – | – | – | – | – |
| Neomycin trisulfate trihydrate | neomycin>paromomycin>ribostamycin | – | – | competitive | approximately 420 times | -6.1 ± 0.1 | -6.1 | three |
